Results published in patent publication US20210069189A1, “TREATMENT OF NEURODEGENERATIVE DISEASES” (BENEVOLENTAI BIO LIMITED, priority 2017, published 2021).

Experiments:
[1] = test system: ALS; conditions: ALS patients; cited from earlier work
[2] = test system: SOD1^G93A mouse model of ALS; conditions: cited from earlier work
[3] = test system: murine Hb9-GFP+ motor neurons co-cultured with ALS patient-derived iAstrocytes; experiment: ALS patient iAstrocyte / mouse Hb9-GFP+ motor neuron co-culture, motor neuron survival; format: cell-based, human iAstrocytes; conditions: iAstrocytes pre-treated 24 hours with various concentrations; viable motor neurons at 72 h as percentage of 24 h, normalised to DMSO control; FIG. 2
Protocol: ALS iAstrocytes were pre-treated with various concentrations of nilotinib, bafetinib or bosutinib for 24 hours, prior to murine Hb9-GFP motor neuron seeding in co-culture. The number of viable motor neurons was then measured 24 and 72 hours after motor neuron seeding, and the percentage motor neuron survival was calculated, and then normalised to the untreated control of the respective line. *P<0.05, **P<0.01, ***P<0.001. One-way ANOVA with Dunnett's post-hoc test. Data are mean±SD. n=5-6.
This example describes the effect of nilotinib, bafetinib and bosutinib on motor neuron survival in an in vitro model of ALS. This model uses human fibroblast-derived astrocytes and mouse Hb9−GFP+ motor neurons in co-culture (Meyer et al., 2014, PNAS 111, 829-832). The fibroblasts were reprogrammed to induced neural progenitor cells (iNPCs), which were differentiated into Astrocytes. Astrocytes derived from ALS patients cause death of the wild-type Hb9−GFP+ mouse motor neurons in co-culture, a property not seen in astrocytes derived from normal (non-ALS) patients. […]
3,000 human iAstrocytes were seeded per well on fibronectin-coated 384-well plates. […] Hb9− GFP+ motor neurons were imaged after 24 and 72 hours using an INCELL analyser 2000 (GE Healthcare), and the number of viable motor neurons was counted using the INCELL analyser software (GE Healthcare).
The number of viable motor neurons (defined as GFP+ motor neurons with at least 1 axon) 25 that survived after 72 hours in co-culture was calculated as a percentage of the number of viable motor neurons after 24 hours in co-culture. […]

[4] = biological target: P-glycoprotein (P-gp) (Homo sapiens, UniProt P08183); conditions: cited from earlier work
P-glycoprotein (P-gp), sequence (P08183 whole entry): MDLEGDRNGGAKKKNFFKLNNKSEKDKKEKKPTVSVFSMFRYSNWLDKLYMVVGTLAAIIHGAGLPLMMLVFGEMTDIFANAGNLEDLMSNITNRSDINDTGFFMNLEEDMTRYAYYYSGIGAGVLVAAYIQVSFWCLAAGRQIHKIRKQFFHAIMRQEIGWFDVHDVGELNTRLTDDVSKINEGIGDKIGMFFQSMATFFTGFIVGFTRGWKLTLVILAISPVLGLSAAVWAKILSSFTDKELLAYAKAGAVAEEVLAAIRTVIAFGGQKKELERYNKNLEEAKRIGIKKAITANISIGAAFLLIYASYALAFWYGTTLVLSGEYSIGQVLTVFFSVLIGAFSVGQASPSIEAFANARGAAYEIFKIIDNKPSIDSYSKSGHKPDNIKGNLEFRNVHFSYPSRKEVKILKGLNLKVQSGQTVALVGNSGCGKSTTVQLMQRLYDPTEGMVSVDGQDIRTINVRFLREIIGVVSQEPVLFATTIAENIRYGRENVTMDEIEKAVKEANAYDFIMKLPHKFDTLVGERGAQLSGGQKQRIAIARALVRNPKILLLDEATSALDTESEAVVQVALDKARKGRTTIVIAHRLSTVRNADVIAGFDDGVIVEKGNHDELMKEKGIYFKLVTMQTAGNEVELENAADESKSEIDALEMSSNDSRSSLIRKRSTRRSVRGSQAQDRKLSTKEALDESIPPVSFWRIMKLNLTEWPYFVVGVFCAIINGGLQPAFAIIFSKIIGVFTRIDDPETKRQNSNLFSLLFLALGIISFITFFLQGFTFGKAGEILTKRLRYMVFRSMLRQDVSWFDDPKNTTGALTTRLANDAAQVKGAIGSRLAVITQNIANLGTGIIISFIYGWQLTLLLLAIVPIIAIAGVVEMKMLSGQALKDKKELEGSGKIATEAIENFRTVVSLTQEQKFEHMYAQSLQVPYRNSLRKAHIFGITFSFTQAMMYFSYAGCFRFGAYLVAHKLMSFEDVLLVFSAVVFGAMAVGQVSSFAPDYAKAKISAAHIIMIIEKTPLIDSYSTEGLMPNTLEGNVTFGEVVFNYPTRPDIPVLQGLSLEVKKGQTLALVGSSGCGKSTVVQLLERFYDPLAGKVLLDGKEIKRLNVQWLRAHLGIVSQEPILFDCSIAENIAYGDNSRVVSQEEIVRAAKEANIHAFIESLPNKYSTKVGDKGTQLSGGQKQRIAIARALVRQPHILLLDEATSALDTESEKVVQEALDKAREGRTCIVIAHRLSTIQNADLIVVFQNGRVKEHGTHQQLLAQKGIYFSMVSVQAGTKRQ

Structure (SMILES): Nc1nc2ccc(OC(F)(F)F)cc2s1 [Riluzole]
- prolongation of life [1]: 2-3 months

Structure (SMILES): C#Cc1cccc(Nc2ncnc3cc(OCCOC)c(OCCOC)cc23)c1 [erlotinib]
- lifespan [2]: failed to extend lifespan
- penetration into the central nervous system [2]: penetrated into the central nervous system
- protection of motor synapses [2]: did not protect motor synapses
- symptom delay (disease onset and progression) [2]: modest yet statistically significant symptom delay

Structure (SMILES): C=CC(=O)Nc1cc2c(Nc3ccc(F)c(Cl)c3)ncnc2cc1OCCCN1CCOCC1 [canertinib]
- motor neuron survival [3]: no such increase in survival

Structure (SMILES): Cc1cn(-c2cc(NC(=O)c3ccc(C)c(Nc4nccc(-c5cccnc5)n4)c3)cc(C(F)(F)F)c2)cn1 [nilotinib]
- motor neuron survival [3]: dose-dependent increase in motor neuron survival
- P-glycoprotein substrate [4]: P-glycoprotein (P-gp) substrate

Structure (SMILES): Cc1ccc(NC(=O)c2ccc(CN3CCN(C)CC3)cc2)cc1Nc1nc(-c2cccnc2)cs1 [masitinib]
- motor neuron survival [3]: no such increase in survival
